Data: ChEMBL document CHEMBL3991601, “The target landscape of clinical kinase drugs” (Science, 2017)
The source made the active and inactive calls.

Experiments:
[1] = target: Protein-tyrosine kinase 6 (Homo sapiens, UniProt Q13882)
[2] = target: Putative heat shock protein HSP 90-beta 2 (Homo sapiens, UniProt Q58FF8)
[3] = target: T1, Probable ATP-dependent RNA helicase DDX6 (Homo sapiens, UniProt P26196)
T1 sequence (P26196 whole entry): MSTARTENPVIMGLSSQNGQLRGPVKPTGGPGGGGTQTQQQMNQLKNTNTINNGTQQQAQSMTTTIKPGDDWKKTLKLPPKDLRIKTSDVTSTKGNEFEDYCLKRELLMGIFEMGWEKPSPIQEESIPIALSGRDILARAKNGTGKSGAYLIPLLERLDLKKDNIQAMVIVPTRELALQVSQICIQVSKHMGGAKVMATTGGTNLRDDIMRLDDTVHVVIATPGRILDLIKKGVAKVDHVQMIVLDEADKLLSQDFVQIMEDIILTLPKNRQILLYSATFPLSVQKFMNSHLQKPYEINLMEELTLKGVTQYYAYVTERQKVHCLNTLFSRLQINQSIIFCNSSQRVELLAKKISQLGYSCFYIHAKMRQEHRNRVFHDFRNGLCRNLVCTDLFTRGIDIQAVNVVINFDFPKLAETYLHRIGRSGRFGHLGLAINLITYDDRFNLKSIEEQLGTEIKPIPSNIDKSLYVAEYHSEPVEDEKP

[4] = target: T2, Long-chain-fatty-acid--CoA ligase 5 (Homo sapiens, UniProt Q9ULC5)
T2 sequence (Q9ULC5 whole entry): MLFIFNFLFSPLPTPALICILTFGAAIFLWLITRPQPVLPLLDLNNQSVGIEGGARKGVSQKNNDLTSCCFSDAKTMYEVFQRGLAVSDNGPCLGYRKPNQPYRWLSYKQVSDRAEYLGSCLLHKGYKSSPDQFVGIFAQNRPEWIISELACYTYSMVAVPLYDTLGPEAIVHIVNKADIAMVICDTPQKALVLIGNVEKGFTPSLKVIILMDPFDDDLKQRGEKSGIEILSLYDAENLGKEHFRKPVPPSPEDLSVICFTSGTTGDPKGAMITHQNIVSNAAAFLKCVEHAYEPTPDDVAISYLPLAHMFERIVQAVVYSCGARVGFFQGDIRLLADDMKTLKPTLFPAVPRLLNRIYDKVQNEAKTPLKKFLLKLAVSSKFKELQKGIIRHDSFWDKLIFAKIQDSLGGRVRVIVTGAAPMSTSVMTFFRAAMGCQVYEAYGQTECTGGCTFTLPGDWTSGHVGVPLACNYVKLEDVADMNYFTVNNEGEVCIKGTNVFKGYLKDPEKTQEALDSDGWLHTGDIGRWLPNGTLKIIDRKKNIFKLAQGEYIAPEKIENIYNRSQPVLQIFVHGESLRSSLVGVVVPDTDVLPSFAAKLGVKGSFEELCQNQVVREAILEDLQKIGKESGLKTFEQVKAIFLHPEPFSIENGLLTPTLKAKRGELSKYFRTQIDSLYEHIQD

[5] = target: Myosin-14 (Homo sapiens, UniProt Q7Z406)
[6] = target: Adenosine kinase (Homo sapiens, UniProt P55263)
[7] = target: Cyclin-dependent kinase 6 (Homo sapiens, UniProt Q00534)
[8] = target: T3, dCTP pyrophosphatase 1 (Homo sapiens, UniProt Q9H773)
T3 sequence (Q9H773 whole entry): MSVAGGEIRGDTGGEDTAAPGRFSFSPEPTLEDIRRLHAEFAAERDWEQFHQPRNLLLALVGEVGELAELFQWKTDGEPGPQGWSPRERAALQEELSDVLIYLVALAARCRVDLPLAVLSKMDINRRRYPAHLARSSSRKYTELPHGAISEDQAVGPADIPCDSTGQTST

[9] = target: T4, Cytochrome c1, heme protein, mitochondrial (Homo sapiens, UniProt P08574)
T4 sequence (P08574 whole entry): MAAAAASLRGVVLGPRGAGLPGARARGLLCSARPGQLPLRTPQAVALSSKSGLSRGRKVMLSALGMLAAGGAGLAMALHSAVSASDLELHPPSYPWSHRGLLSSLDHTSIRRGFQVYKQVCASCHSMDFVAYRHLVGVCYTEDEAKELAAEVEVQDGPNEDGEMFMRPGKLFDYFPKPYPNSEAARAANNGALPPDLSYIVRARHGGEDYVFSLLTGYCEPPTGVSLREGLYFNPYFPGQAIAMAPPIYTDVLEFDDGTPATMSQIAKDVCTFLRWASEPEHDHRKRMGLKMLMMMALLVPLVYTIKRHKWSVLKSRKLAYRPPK

[10] = target: T5, Ribosyldihydronicotinamide dehydrogenase [quinone] (Homo sapiens, UniProt P16083)
T5 sequence (P16083 whole entry): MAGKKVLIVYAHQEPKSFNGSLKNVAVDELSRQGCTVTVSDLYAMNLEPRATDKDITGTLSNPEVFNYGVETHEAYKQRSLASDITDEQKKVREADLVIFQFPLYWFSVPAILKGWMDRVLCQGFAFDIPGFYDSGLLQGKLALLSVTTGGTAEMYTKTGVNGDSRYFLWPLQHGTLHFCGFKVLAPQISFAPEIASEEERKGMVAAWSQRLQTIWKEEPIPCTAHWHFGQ

[11] = target: T6, Rab-like protein 3 (Homo sapiens, UniProt Q5HYI8)
T6 sequence (Q5HYI8 whole entry): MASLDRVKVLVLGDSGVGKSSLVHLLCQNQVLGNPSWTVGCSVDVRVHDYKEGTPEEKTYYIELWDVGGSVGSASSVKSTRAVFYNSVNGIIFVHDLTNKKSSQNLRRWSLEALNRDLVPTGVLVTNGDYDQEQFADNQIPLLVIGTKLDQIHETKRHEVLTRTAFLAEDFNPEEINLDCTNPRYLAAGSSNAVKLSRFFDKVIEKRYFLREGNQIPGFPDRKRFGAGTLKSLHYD

[12] = target: Casein kinase I isoform epsilon (Homo sapiens, UniProt P49674)
[13] = target: Ribosomal protein S6 kinase alpha-4 (Homo sapiens, UniProt O75676)
[14] = target: Casein kinase I isoform alpha (Homo sapiens, UniProt P48729)
[15] = target: LIM domain kinase 1 (Homo sapiens, UniProt P53667)
[16] = target: Serine/threonine-protein kinase MRCK gamma (Homo sapiens, UniProt Q6DT37)
[17] = target: Casein kinase I isoform gamma-1 (Homo sapiens, UniProt Q9HCP0)
[18] = target: Cyclin-dependent kinase 2 (Homo sapiens, UniProt P24941)
Further: in the data inactive means no Kd found up to 30 µM.

Casein kinase I isoform alpha, sequence (P48729 whole entry, the tested form may be a part, canonical isoform): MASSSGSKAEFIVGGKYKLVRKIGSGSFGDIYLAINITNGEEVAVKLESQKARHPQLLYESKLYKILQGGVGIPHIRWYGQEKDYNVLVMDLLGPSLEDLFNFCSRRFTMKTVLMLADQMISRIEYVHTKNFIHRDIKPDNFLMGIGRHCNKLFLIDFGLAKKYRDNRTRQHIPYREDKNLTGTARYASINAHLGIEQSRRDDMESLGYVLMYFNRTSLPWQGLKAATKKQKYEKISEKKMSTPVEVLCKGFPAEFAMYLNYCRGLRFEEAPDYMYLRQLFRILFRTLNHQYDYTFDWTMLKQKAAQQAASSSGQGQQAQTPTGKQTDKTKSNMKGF
Casein kinase I isoform gamma-1, sequence (Q9HCP0 whole entry, canonical isoform): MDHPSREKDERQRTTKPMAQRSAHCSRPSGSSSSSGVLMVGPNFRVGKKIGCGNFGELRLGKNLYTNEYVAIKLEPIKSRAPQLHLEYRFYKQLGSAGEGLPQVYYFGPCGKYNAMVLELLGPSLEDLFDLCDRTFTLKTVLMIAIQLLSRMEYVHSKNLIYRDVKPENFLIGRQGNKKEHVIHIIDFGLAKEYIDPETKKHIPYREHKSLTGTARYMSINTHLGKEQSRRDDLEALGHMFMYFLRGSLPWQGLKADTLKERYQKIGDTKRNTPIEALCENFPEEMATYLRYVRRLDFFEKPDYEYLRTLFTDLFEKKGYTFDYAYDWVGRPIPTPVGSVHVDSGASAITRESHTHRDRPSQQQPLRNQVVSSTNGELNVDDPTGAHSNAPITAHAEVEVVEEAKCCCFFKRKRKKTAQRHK
Ribosomal protein S6 kinase alpha-4, sequence (O75676 whole entry, canonical isoform): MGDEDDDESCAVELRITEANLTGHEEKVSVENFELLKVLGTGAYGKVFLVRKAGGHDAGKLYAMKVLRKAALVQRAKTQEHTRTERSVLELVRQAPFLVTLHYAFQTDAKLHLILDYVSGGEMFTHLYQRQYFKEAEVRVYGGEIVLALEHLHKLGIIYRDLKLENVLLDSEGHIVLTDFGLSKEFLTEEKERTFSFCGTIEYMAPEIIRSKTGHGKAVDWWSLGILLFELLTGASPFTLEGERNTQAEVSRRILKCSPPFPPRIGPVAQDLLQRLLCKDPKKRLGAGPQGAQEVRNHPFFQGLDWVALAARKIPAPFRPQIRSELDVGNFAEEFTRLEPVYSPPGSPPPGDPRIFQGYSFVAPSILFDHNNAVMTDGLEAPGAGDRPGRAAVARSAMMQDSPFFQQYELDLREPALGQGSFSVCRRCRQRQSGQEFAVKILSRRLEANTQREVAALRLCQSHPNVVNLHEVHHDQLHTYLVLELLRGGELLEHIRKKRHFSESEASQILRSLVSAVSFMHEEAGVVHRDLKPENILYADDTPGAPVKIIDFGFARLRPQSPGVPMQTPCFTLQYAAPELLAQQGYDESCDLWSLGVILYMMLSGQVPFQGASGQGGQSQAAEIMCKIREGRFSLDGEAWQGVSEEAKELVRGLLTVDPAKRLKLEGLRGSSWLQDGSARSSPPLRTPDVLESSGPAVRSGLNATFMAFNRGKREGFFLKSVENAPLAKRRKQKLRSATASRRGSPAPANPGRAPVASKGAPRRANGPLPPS
Putative heat shock protein HSP 90-beta 2, sequence (Q58FF8 whole entry): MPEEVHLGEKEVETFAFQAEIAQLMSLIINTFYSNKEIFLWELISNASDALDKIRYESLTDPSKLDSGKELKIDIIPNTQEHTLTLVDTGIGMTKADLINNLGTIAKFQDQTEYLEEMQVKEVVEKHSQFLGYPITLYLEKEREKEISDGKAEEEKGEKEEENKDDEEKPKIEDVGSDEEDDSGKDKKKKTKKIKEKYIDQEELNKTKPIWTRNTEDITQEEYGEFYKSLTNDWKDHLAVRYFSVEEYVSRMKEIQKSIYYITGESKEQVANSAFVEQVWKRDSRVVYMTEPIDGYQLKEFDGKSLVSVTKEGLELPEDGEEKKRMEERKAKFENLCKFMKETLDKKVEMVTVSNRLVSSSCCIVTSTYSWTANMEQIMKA
Protein-tyrosine kinase 6, sequence (Q13882 whole entry): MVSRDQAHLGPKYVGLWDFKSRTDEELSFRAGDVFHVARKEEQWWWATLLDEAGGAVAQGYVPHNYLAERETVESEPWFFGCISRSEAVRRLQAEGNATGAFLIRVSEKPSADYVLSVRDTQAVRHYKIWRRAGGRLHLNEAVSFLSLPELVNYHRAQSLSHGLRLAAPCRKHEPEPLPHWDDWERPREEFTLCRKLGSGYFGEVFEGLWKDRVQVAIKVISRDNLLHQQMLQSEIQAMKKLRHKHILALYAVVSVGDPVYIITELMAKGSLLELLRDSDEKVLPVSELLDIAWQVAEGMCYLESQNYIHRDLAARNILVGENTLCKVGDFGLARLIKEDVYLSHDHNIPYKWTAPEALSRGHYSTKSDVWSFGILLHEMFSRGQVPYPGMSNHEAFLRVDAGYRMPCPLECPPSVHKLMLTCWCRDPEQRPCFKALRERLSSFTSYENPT
Casein kinase I isoform epsilon, sequence (P49674 whole entry, canonical isoform): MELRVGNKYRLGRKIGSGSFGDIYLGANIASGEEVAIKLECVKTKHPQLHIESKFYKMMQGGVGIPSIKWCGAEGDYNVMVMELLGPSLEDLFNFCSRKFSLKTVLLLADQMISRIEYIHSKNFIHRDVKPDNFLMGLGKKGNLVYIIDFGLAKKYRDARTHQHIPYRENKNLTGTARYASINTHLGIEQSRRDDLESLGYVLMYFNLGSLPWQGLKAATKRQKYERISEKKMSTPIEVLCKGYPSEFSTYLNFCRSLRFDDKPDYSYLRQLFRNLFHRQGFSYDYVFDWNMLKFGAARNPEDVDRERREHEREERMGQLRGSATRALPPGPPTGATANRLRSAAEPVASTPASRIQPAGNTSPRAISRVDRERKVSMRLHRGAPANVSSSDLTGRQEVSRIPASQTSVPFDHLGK
Cyclin-dependent kinase 6, sequence (Q00534 whole entry): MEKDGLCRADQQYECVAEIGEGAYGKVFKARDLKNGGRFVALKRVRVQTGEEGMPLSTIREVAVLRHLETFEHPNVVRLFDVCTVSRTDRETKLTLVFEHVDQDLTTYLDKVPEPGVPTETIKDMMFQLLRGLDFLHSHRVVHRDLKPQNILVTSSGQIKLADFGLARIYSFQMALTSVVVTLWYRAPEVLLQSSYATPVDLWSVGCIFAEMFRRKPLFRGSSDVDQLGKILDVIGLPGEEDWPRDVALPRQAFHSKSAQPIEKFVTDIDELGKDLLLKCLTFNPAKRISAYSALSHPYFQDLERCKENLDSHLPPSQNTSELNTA
Adenosine kinase, sequence (P55263 whole entry): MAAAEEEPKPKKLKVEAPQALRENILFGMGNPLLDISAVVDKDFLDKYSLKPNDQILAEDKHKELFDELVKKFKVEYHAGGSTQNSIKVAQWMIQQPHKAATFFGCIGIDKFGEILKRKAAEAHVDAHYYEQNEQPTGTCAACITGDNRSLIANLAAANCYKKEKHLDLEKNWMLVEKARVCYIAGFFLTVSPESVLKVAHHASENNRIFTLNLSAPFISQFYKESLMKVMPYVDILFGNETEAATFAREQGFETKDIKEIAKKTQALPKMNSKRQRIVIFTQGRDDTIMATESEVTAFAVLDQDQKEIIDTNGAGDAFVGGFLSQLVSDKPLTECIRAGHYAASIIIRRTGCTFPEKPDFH
Serine/threonine-protein kinase MRCK gamma, sequence (Q6DT37 whole entry, canonical isoform): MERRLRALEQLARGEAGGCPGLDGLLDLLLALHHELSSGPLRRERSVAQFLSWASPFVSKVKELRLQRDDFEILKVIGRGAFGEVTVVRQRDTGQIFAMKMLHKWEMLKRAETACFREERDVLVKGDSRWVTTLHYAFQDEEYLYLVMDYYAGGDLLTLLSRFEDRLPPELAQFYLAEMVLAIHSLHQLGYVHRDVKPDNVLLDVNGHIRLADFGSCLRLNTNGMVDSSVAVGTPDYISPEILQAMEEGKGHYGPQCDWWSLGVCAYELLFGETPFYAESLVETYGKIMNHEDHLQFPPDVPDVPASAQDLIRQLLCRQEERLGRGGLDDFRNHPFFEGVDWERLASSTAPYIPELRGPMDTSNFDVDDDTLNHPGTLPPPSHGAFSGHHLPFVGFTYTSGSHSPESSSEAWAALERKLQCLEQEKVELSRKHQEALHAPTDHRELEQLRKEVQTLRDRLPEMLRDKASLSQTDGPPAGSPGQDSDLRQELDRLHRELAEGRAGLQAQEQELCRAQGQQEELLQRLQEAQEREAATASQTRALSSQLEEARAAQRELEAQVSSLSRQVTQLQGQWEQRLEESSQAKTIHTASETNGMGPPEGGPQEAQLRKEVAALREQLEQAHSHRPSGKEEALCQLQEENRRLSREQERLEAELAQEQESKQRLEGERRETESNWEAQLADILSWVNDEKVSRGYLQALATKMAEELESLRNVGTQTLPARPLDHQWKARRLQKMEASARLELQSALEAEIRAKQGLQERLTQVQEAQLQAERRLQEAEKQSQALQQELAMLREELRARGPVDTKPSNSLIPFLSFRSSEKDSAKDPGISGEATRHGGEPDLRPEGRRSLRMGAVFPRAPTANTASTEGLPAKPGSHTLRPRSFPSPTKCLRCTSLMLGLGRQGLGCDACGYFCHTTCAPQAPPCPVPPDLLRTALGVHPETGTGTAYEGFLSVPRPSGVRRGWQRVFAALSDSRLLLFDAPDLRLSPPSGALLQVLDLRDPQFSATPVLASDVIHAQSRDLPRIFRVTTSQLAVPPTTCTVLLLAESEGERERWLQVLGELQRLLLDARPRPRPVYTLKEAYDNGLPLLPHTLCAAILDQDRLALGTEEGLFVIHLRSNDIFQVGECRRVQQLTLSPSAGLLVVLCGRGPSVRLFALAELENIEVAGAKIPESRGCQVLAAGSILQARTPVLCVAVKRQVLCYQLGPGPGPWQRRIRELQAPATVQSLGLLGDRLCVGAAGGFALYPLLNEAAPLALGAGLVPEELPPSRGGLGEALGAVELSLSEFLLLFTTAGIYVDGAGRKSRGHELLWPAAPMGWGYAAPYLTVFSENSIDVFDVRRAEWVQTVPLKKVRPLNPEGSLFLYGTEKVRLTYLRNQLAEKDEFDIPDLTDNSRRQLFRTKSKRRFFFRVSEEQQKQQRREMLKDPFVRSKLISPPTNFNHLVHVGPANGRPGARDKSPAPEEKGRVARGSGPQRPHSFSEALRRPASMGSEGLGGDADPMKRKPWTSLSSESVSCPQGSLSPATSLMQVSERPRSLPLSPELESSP

Kd [1]	Kd [2]	Kd [3]	Kd [4]	Kd [5]	Kd [6]	Kd [7]	Kd [8]	Kd [9]	Kd [10]	Kd [11]	Kd [12]	Kd [13]	Kd [14]	Kd [15]	Kd [16]	Kd [17]	Kd [18]	SMILES
1.22 µM (active)	> 30 µM (inactive)	> 30 µM (inactive)	0.008 µM	> 30 µM (inactive)	> 30 µM (inactive)	> 30 µM (inactive)	> 30 µM (inactive)	> 30 µM (inactive)	> 30 µM (inactive)	–	–	–	–	–	–	–	–	COc1cc2c(Oc3ccc4[nH]c(C)cc4c3F)ncnc2cc1OCCCN1CCCC1 [CEDIRANIB]
–	> 30 µM (inactive)	> 30 µM (inactive)	> 30 µM (inactive)	> 30 µM (inactive)	> 30 µM (inactive)	> 30 µM (inactive)	> 30 µM (inactive)	> 30 µM (inactive)	> 30 µM (inactive)	> 30 µM (inactive)	–	–	–	–	–	–	–	COc1cc2c(N3CCN(C(=O)Nc4ccc(OC(C)C)cc4)CC3)ncnc2cc1OCCCN1CCCCC1 [TANDUTINIB]
> 30 µM (inactive)	> 30 µM (inactive)	> 30 µM (inactive)	–	> 30 µM (inactive)	> 30 µM (inactive)	> 30 µM (inactive)	> 30 µM (inactive)	> 30 µM (inactive)	> 30 µM (inactive)	> 30 µM (inactive)	> 30 µM (inactive)	> 30 µM (inactive)	> 30 µM (inactive)	> 30 µM (inactive)	> 30 µM (inactive)	> 30 µM (inactive)	> 30 µM (inactive)	CCc1cc2c(cc1N1CCC(N3CCOCC3)CC1)C(C)(C)c1[nH]c3cc(C#N)ccc3c1C2=O [ALECTINIB]
> 30 µM (inactive)	> 30 µM (inactive)	> 30 µM (inactive)	–	> 30 µM (inactive)	> 30 µM (inactive)	> 30 µM (inactive)	> 30 µM (inactive)	> 30 µM (inactive)	> 30 µM (inactive)	> 30 µM (inactive)	> 30 µM (inactive)	> 30 µM (inactive)	> 30 µM (inactive)	> 30 µM (inactive)	> 30 µM (inactive)	> 30 µM (inactive)	> 30 µM (inactive)	Cn1c(=O)c(F)c(Nc2ccc(I)cc2F)c2c(=O)n(C[C@@H](O)CO)cnc21 [TAK-733]
> 30 µM (inactive)	> 30 µM (inactive)	> 30 µM (inactive)	–	> 30 µM (inactive)	> 30 µM (inactive)	> 30 µM (inactive)	> 30 µM (inactive)	> 30 µM (inactive)	> 30 µM (inactive)	> 30 µM (inactive)	> 30 µM (inactive)	> 30 µM (inactive)	> 30 µM (inactive)	> 30 µM (inactive)	> 30 µM (inactive)	> 30 µM (inactive)	> 30 µM (inactive)	Cc1ccc(C(=O)Nc2ccc(Oc3cc4cnn(C)c4cc3-c3cn[nH]c3)c(F)c2)c(=O)n1-c1ccc(F)cc1 [MERESTINIB]
–	> 30 µM (inactive)	> 30 µM (inactive)	> 30 µM (inactive)	> 30 µM (inactive)	3.49 µM (active)	> 30 µM (inactive)	> 30 µM (inactive)	> 30 µM (inactive)	> 30 µM (inactive)	> 30 µM (inactive)	–	–	–	–	–	–	–	CN(C)C/C=C/C(=O)Nc1cc2c(Nc3ccc(F)c(Cl)c3)ncnc2cc1O[C@H]1CCOC1 [AFATINIB]

The next lines start with the compound.

SMILES	Kd [1]	Kd [2]	Kd [3]	Kd [4]	Kd [5]	Kd [6]	Kd [7]	Kd [8]	Kd [9]	Kd [10]	Kd [11]	Kd [12]	Kd [13]	Kd [14]	Kd [15]	Kd [16]	Kd [17]	Kd [18]
N#CCNC(=O)c1ccc(-c2ccnc(Nc3ccc(N4CCOCC4)cc3)n2)cc1 [MOMELOTINIB]	> 30 µM (inactive)	> 30 µM (inactive)	> 30 µM (inactive)	> 30 µM (inactive)	> 30 µM (inactive)	> 30 µM (inactive)	3.36 µM	> 30 µM (inactive)	> 30 µM (inactive)	> 30 µM (inactive)	> 30 µM (inactive)	> 30 µM (inactive)	> 30 µM (inactive)	> 30 µM (inactive)	> 30 µM (inactive)	> 30 µM (inactive)	–	–
CC1(C)CNc2cc(NC(=O)c3cccnc3NCc3ccncc3)ccc21 [MOTESANIB]	–	> 30 µM (inactive)	> 30 µM (inactive)	> 30 µM (inactive)	–	> 30 µM (inactive)	> 30 µM (inactive)	> 30 µM (inactive)	> 30 µM (inactive)	> 30 µM (inactive)	> 30 µM (inactive)	–	–	–	–	–	–	–
Cn1cnc2c(F)c(Nc3ccc(Br)cc3Cl)c(C(=O)NOCCO)cc21 [SELUMETINIB]	–	> 30 µM (inactive)	> 30 µM (inactive)	> 30 µM (inactive)	> 30 µM (inactive)	> 30 µM (inactive)	> 30 µM (inactive)	> 30 µM (inactive)	> 30 µM (inactive)	> 30 µM (inactive)	> 30 µM (inactive)	–	–	–	–	–	–	–
O=S(=O)(c1cccc2cnccc12)N1CCCNCC1 [FASUDIL]	> 30 µM (inactive)	> 30 µM (inactive)	> 30 µM (inactive)	> 30 µM (inactive)	> 30 µM (inactive)	> 30 µM (inactive)	> 30 µM (inactive)	> 30 µM (inactive)	> 30 µM (inactive)	2.45 µM (active)	–	> 30 µM (inactive)	> 30 µM (inactive)	–	–	> 30 µM (inactive)	> 30 µM (inactive)	–
COc1cc2ncnc(Nc3ccc(O)cc3)c2cc1OC [WHI-P131]	> 30 µM (inactive)	> 30 µM (inactive)	> 30 µM (inactive)	> 30 µM (inactive)	> 30 µM (inactive)	> 30 µM (inactive)	> 30 µM (inactive)	> 30 µM (inactive)	> 30 µM (inactive)	> 30 µM (inactive)	> 30 µM (inactive)	> 30 µM (inactive)	> 30 µM (inactive)	> 30 µM (inactive)	> 30 µM (inactive)	> 30 µM (inactive)	> 30 µM (inactive)	–
